How the values were obtained:
[1] = system: human colon cancer cells; settings: cited from earlier work
[2] = system: Sprague Dawley (SD) rats; test: DEN/CCl4-induced hepatoma in rats, progression stage: liver observation and weight; type: in vivo, rat; settings: 15 mg/kg oral daily for 24 weeks
Source text: The effect of SIN on progression stage of cancer development was studied. FIG. 20 summarized the protocol applied to rats. The amounts of rats and grouping method were all the same as in the promotion stage experiment.
(§1) Rats in the negative control group received weekly intraperitoneal (i.p.) injection of DMSO for the first 2 weeks and then Corn Oil for 28 weeks. Rats in the positive control and SIN-treatment groups both received weekly intraperitoneal (i.p.) injection of DEN for the first 2 weeks and then CCl4 for 28 weeks. Two weeks of fasting were inserted between DEN treatment and CCl4 treatment. Starting from 33rd week, negative and positive control groups received oral administration of water once a day. Sinigrin with dosage 15 mg/kg was administered orally to the SIN-treatment group daily for 24 weeks. After treatment, the rats were killed. Blood and liver were collected and processed as described in the foregoing examples.

[3] = system: p53, Mdm2, p21, PCNA, Bax and Bcl-2; test: Gene expression assay (RT-PCR, Western blot) in rat liver, promotion stage; type: in vivo
Protocol: Expression patterns, at both mRNA and protein levels, of selected genes related to apoptosis and tumors were examined to investigate the mechanism by which sinigrin prevent tumor occurrence.
(§2) RNA was extracted from 300 μg of rat liver and was measured as described in foregoing examples Three micrograms of total RNA, 1 μl of an oligo dT primer and certain volume of RNase-Free H2O were mixed into a total volume of 12 μl. The mixture was incubated at 70° C. for 10 minutes and immediately chilled on ice. Four microliters of 5× First Stand Buffer, 2 μl of 0.1M DTT, 1 μl of 10 mM dNTP mix, and 1 μl of SuperScript II were added to each tube and mixed. The tubes were incubated at 42° C. for 50 minutes followed by 70° C. for 15 minutes before chilling on ice. The cDNA was then ready for PCR amplification.
(§3) The PCR reactions were performed in a final volume of 20 μl in a Gene Amp® PCR system. The PCR reaction mix contained 1 μl of cDNA synthesized previously, 2 μl 10×PCR Buffer, 0.4 μl 10 mM dNTP mix, 1.2 μl 25 mM MgCl2, 1 μl 10 mM primer mix, 0.2 μl recombinant Taq polymerase, and 14.2 μl autoclaved ddH2O.
For synthesis of β-actin gene as the internal control and Mdm2 gene, the PCR mixture was incubated at 94° C. for 5 minutes followed by 30 cycles of amplification. Each cycle consisted of 45 seconds of denaturation at 94° C., 45 seconds of annealing at 55° C. and 30 seconds of extension at 72° C. After all cycles were completed, a final extension step at 72° C. for 10 minutes was performed. The PCR products were ready for gel electrophoresis.
For synthesis of p53, the number of cycle was enhanced to 35, the annealing temperature was enhanced to 58° C., and the extension time was extended to 1.5 minutes, respectively.
(§4) The intensity of the PCR products was analyzed by the software Image J. The band intensity of the β-actin gene was measured as an internal control. The ratio of the band intensities of the target gene to the β-actin gene was used to compare the mRNA level of each gene between different treatment groups.
(§5) Three hundred micrograms of each liver sample were homogenized in the Solution C at 1 g/ml using a glass homogenizer on ice. The homogenate was transferred to a microcentrifuge tube and centrifuged at 13,000 rpm for 20 minutes. The supernatant was collected and equal volume of 2× sample loading dye was added to each sample. The samples were stored at −20° C. The protein was used for immunodetection of the expression level of Bax, Bcl-2, PCNA and p21.
(§6) Three hundreds micrograms of each liver sample were homogenized in Solution A at 1 g/ml using the glass homogenizer on ice. The homogenate was transferred into a microcentrifuge tube and centrifuged at 3,000 rpm for 5 minutes to spin down the unbroken tissue. The supernatant was collected and incubated on ice for 5 minutes and then centrifuged at 5,000 rpm for 5 minutes. The supernatant was discarded and the pellet was lysed by 100 μl Solution B. The lysing process lasted for 20 minutes on ice. After incubation, the solution was centrifuged at 12,000 rpm for 15 seconds to spin down the cell debris. The supernatant was collected and equal volume of 2× sample loading dye was added to each sample. The samples were ready for immunodetection of the expression level of p53 and mdm2.
The Mini-PROTEAN II electrophoresis cell (Bio-Rad) was used for sodium dodecyl sulfate poly acrylamide gel electrophoreses (SDS-PAGE). The gel mold was assembled according to the protocol. About 3 ml water was poured into the set mold to test for leakage. After discarding the water, resolving gel solution was prepared according to the established protocol. A 10% acrylamide gel was used for the separation. The resolving gel was poured into the mold at a proper volume (about ⅔ full). After the gel solution was poured into the mold, a thin layer of distilled water was poured on the gel solution to ensure the surface of the gel was smooth. The gel was allowed to polymerize for 30 minutes. […]

[4] = system: p53, Mdm2, p21, PCNA, Bax and Bcl-2; test: Gene expression assay (semi-quantitative PCR, Western blot) in rat liver, progression stage; type: in vivo
Protocol: as §2, §3, §4, §5, §6
Each of the transferred membrane blots was incubated in 4 ml TBST with 5% non-fat milk powder and primary antibody overnight at 4° C. After incubation, the membrane was washed in TBST buffer for 10 minutes for 3 times. Each transferred membrane blot was then incubated in 4 ml TBST and 5% non-fat milk powder with secondary antibody for 1 hour at room temperature. After incubation, the membrane was washed in TBST buffer for 10 minutes for 3 times. The membrane was ready for ECL reaction.
The films that captured the signal from the ECL reaction were scanned into the computer and analyzed by the software Image J to read the density of darkness.
as §1
The gene expression assays were performed as described in the foregoing examples. […]

Compound: C=CC/C(=N/OS(=O)(=O)[O-])S[C@@H]1OC(CO)[C@@H](O)C(O)C1O.[K+] (stereo partly drawn) [SIN, sinigrin]
- action on apoptosis and cell proliferation [1]: might be apoptosis- and cell proliferation-independent
- percentage of liver weight and liver weight index vs negative group [2]: only slightly higher
- visible tumors on liver (direct observation) [2]: few visible tumors
- Mdm2 mRNA expression ([3]; RT-PCR): decreased back to levels near the negative control
- p53 mRNA expression ([3]; RT-PCR): decreased back to levels near the negative control
- Bax protein expression (decreased in positive group) ([3]; Western blot): reversed
- Bcl-2 protein expression (increased in positive group) ([3]; Western blot): reversed
- Mdm2 protein expression (increase in positive control) ([3]; Western blot): partially reversed
- PCNA protein expression (increased in positive group) ([3]; Western blot): reversed
- p21 protein expression ([3]; Western blot): much higher than that of the negative control and the positive control
- total p53 protein level ([3]; Western blot): significantly increased
- wild type p53 protein level ([3]; Western blot): restored its expression to a level even higher than the negative control
- Mdm2 mRNA expression ([4]; RT-PCR): reduced back to levels near or even lower than the negative control
- p53 mRNA expression ([4]; RT-PCR): reduced back to levels near or even lower than the negative control
- Bax protein expression (decreased in positive group) ([4]; Western blot): reversed
- Bcl-2 protein expression (increased in positive group) ([4]; Western blot): reversed
- Mdm2 protein expression (increase in positive control) ([4]; Western blot): partially reversed
- PCNA protein expression (increased in positive group) ([4]; Western blot): reversed
- p21 protein expression ([4]; Western blot): restored its expression to a level substantially higher than the negative control
- total p53 protein level ([4]; Western blot): significantly increased
- wild type p53 protein level ([4]; Western blot): restored its expression to a level even higher than that of the negative control
